Values of other authors as cited in paper PMC11702666, “The anti-COVID-19 drug Paxlovid crosses biological barriers of the placenta and brain in rats” (npj Viruses, 2024).
Entries after “also recorded” stand apart in the source; their conditions may differ. Read-outs that look alike come from different tables or passages of the source.

Experiments:
[1] = test system: CYP3A; details: cited from earlier work; for AUC0 to infinity: midazolam 2 mg p.o.
[2] = cited from earlier work
[3] = PBPK model LeiCNS-PK3.0; recommended dosing regimen; cited from earlier work
[4] = male rats; cited from earlier work
[5] = oral; cited from earlier work

Compound: Cc1ncc2n1-c1ccc(Cl)cc1C(c1ccccc1F)=NC2 [midazolam]
- increase of apparent CYP3A activity during pregnancy ([1]; for midazolam): 35-38%
- AUC0 to infinity ([1]; postpartum): 17.9 ± 6.0 ng·h/mL
- increase in CYP3A activity ([1]; pregnancy vs postpartum, from midazolam AUC): 1.88 fold
- AUC0 to infinity ([1]; pregnancy, healthy pregnant women): 9.5 ± 4.3 ng·h/mL

Compound: CC(C)C(=O)OC[C@H]1O[C@@H](n2ccc(NO)nc2=O)[C@H](O)[C@@H]1O [molnupiravir]
- placental barrier transfer ([2]; pregnant rats): traverse the placental barrier; also recorded: transfer to the placental barrier
- predicted brain penetration / effective concentrations against SARS-CoV-2 [3]: unable to penetrate the BBB
- blood–brain barrier transfer [4]: exhibit the potential to cross the blood–brain barrier

Compound: CCC(CC)COC(=O)[C@H](C)N[P@](=O)(OC[C@H]1O[C@@](C#N)(c2ccc3c(N)ncnn23)[C@H](O)[C@@H]1O)Oc1ccccc1 [remdesivir]
- placental barrier transfer ([2]; experimental animal model): transfer to the placental barrier
- predicted brain penetration / effective concentrations against SARS-CoV-2 [3]: unable to penetrate the BBB

Compound: CC(C)c1nc(CN(C)C(=O)N[C@H](C(=O)N[C@@H](Cc2ccccc2)C[C@H](O)[C@H](Cc2ccccc2)NC(=O)OCc2cncs2)C(C)C)cs1 [ritonavir]
- bioavailability [5]: ~80%
